Measured values published in patent US9907791B2, “Ron inhibitors for use in preventing and treating bone loss” (UNIVERSITY OF UTAH RESEARCH FOUNDATION, priority 2014, dated 2018).

Assays:
bone marrow osteoclasts [1] = test: Osteoclast survival assay; assay type: cell-based, mice; details: 10 μM Src inhibitor daily from day 7 for 48 hours, with MSP
Procedure: Bone marrow precursor cells were thawed and seeded at a density of 2×10^5 cells per well in a 24-well plate containing glass coverslips in α-MEM media containing 10% FBS and antibiotics. After adhering overnight, media was removed and media containing 33 ng/mL hM-CSF and 9 ng/mL muRANKL was added. Cells were allowed to differentiate for 7 days with media changed every 3 days. Coverslips were then imaged microscopically using phase contrast to determine osteoclast number in each well. To test survival, factor-containing media was removed and α-MEM media containing 10% FBS was added as well as MSP as indicated. Cells were cultured for an additional 48 hours, fixed with 10% NBF for 10 minutes and washed with 1×PBS. For TRAP fluorescent staining, the leukocyte acid phosphatase kit (Sigma, St. Louis, Mo.) was used according to the manufacturer's instructions, with the substitution of 200 μM ELF97 (Invitrogen, Waltham, Mass.) as a phosphatase substrate. Coverslips were incubated in TRAP solution for 15 minutes at 37 degrees, washed with 1×PBS and counterstained with DAPI. The number of multinucleated TRAP+ cells (containing 4 or more nuclei) within 5 representative fields were included for quantification. Experiments were performed in triplicate.

PyMT control tumor cells = test: Intratibial PyMT control tumor-induced osteolysis; assay type: in vivo, mice; details: WT mice, treatment began 3 days post injection, sacrificed 42 days post injection
Source text: (§1) All procedures involving mice and experimental protocols were approved by the Institutional Animal Care and Use Committee (IACUC) of the University of Utah. The RonTK−/− mice which reside on the FVB background, were crossed with NOD.SCID mice for an immune-compromised mouse model. As a control, wild-type FVB mice were also crossed with NOD.SCID mice. The STK−/− mice, which are on a C57BL/6 background, were compared to wild-type C57BL/6 mice as controls. Mice for all experiments were 6 to 8 weeks of age. For intratibial injections, 1×10^5 (PyMTor DU4475) or 3×10^5 (MDA-MB-231) tumor cells were resuspended in 10 μL matrigel and injected into the right tibia of anesthetized female FVB (PyMT) or NOD.SCID mice carrying various alleles of RON. Osteolysis was assessed by X-ray radiography. Dissected hindlimbs from mice sacrificed at the final time point in each experiment were placed in the Kodak In-vivo Multispectral Imaging System FX and exposed to X-ray radiography at 35 kV for 100 sec. Excess tumor tissue was removed from the bones prior to X-ray. Osteolytic lesions were quantified using Image J software (NCBI). All images were compared to the contralateral leg as an internal control.
(§2) For in vivo experiments, the OSI-296 inhibitor was dissolved in 40% Trappsol with 0.01 M HCl, and mice were treated at a concentration of 200 mg/kg daily by oral gavage. […]

PyMT-MSP tumor cells = test: Intratibial PyMT-MSP tumor-induced osteolysis; assay type: in vivo, mice
Source text: as §1
Hindlimb bones were excised from mice at the time of sacrifice and bones were fixed in 10% neutral-buffered formalin, decalcified in Formical-2000 (Decal Corporation, Tallman, N.Y.) for 8 days and embedded in paraffin for hematoxylin and eosin (H & E) or immunohistochemical staining. Osteoclast number was assessed as TRAP^+ multinucleated cells containing 4 or more nuclei and reported as TRAP^+ cells per field. Three sections per mouse and 5 fields per section were used for quantification with fields representing the entire length of the tibia. Tumor proliferation rate was reported as the number of cells which were positive for phospho-H3 staining compared to the number of unstained cells per field expressed as a percent. Three sections per mouse and 5 fields per section were used for quantification with analysis being restricted to within the bone marrow cavity. Immunohistochemical analysis was performed with heat-induced antigen retrieval in sodium-citrate buffer (Dako, Denmark). Primary antibodies used were anti-TRAP at 1:50 (Santa Cruz, sc-30833, Dallas, Tex.), anti-Ki67 at 1:100 (Santa Cruz, sc-12202S, Dallas, Tex.), anti-phosphoH3 at 1:100 (Cell Signaling, #9701, Beverly, Mass.), anti-NFATc1 at 1:50 (Santa Cruz, sc-13033, Dallas, Tex.), and anti-RON at 1:250 (Santa Cruz, sc-322, Dallas, Tex.). Bones from mice lacking RON were used as a negative control. Biotinylated secondary antibody was used with the EnVision^+ system HRP kit (Dako, Denmark) and nuclei counterstained with hematoxylin.
For in vivo experiments, the OSI-296 inhibitor was dissolved in 40% Trappsol with 0.01 M HCl, and mice were treated at a concentration of 200 mg/kg daily by oral gavage. Treatment began either 3 days after tumor cell injection for prophylactic experiments, or 3 weeks after tumor cell injection for therapeutic experiments. ASLAN002 was dissolved in 70% PEG400 with 1×PBS and mice were treated at a concentration of 50 mg/kg daily by oral gavage. muRANK-Fc was given at a concentration of 10 mg/kg every three days by intra-peritoneal injection. For the osteoporosis study, mice were treated beginning on the day after ovary removal. The treatment regimen for OSI-296 was 200 mg/kg every other day by oral gavage. ASLAN002 was administered at 50 mg/kg every other day by oral gavage. Treatment continued until the time of sacrifice at 28 days.

[2] = test system: MSP-overexpressing MDA-MB-231 cells; test: Intratibial MSP-overexpressing MDA-MB-231 tumor-induced osteolysis; assay type: in vivo, NOD.SCID mice; details: treated 3 days post tumor cell injection, sacrificed 30 days
Source text: as §1, §2

bone marrow osteoclasts [3] = test: Osteoclast resorption assay; assay type: cell-based, mice; details: WT osteoclasts, inhibitors 10 μM or muRANK-Fc 10 μg/mL daily day 9 to 12
Procedure: Bone marrow osteoclasts were generated from 6 to 8 week old WT and RonTK−/− mice. Briefly, bone marrow was isolated from hindlimb bones and plated in α-MEM media containing 10% heat-inactivated fetal bovine serum (FBS, Sigma, St. Louis, Mo.), 100 units/mL penicillin-streptomycin (Hyclone), and 33 ng/mL human macrophage colony-stimulating factor (hM-CSF) (PeproTech, Rocky Hill, N.J.) for 24 hours. Non-adherent cells were collected and frozen for later use. To assess resorption activity, bone marrow precursor cells were thawed and seeded at a density of 1×10^5 cells per well in BioCoat Osteologic slides (BD Biosciences, San Jose, Calif.) in α-MEM media containing 10% FBS and antibiotics. After adhering overnight, media was removed and media containing 33 ng/mL hM-CSF and 9 ng/mL muRANKL (R & D systems, Minneapolis, Minn.) was added. The medium was changed every 3 days depending on acidification, and the assay was terminated as indicated. Recombinant human MSP was prepared and added daily as indicated. Cells were removed with 6% bleach and slides were viewed microscopically using phase-contrast with 20× magnification. Osteolytic resorption area within 5 representative fields was determined using Image J software, experiments were performed in triplicate. […]

RON = RON (Homo sapiens, UniProt Q04912); details: from the cited IC50 values; cited from earlier work
RON, sequence (Q04912 25-1400): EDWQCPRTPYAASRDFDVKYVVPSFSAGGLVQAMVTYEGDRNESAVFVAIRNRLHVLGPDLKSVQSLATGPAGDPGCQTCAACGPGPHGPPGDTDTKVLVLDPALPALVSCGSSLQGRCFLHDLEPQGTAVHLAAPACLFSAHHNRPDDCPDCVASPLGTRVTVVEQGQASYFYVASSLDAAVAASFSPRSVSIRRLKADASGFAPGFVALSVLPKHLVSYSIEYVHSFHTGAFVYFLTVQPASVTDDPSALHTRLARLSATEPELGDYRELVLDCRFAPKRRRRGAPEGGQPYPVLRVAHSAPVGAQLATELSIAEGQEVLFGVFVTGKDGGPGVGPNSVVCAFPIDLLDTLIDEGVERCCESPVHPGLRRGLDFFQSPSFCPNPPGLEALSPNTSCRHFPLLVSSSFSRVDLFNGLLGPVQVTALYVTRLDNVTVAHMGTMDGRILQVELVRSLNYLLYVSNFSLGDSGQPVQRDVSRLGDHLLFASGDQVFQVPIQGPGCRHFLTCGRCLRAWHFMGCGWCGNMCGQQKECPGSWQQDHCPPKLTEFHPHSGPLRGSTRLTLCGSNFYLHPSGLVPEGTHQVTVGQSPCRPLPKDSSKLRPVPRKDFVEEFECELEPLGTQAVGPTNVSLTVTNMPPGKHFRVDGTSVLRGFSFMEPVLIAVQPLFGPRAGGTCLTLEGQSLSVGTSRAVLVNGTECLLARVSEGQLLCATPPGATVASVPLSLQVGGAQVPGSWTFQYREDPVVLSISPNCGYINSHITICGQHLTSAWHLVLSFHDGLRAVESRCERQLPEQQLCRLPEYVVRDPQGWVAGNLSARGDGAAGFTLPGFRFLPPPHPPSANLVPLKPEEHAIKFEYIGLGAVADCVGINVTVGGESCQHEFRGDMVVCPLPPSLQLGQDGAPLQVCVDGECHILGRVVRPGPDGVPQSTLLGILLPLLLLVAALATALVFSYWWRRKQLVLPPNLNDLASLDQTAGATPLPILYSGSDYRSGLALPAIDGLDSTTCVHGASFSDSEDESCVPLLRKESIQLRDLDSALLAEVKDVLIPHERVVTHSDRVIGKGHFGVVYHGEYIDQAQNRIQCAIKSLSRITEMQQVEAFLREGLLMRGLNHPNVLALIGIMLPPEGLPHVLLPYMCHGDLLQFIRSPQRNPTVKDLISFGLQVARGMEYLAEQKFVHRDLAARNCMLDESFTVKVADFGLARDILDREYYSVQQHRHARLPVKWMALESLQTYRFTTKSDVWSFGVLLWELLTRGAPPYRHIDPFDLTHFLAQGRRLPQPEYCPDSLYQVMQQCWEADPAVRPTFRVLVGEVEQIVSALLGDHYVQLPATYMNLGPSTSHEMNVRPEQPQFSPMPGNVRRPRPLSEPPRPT

| Compound | MSP-mediated osteoclast survival (bone marrow osteoclasts [1]) | osteolysis from PyMT control tumors (no MSP) (PyMT control tumor cells) | inhibition of osteolysis (PyMT-MSP tumor cells; PyMT-MSP tumors, treatment beginning three days after tumor injection, average) | TRAP+ osteoclasts in tumor-bearing bones (PyMT-MSP tumor cells; TRAP staining of bone sections) | PyMT-MSP tumor growth in the bone (PyMT-MSP tumor cells; caliper measurements) | PyMT-MSP tumor proliferation rate in the bone (PyMT-MSP tumor cells; percent cells positive for phospho-H3) | progression of existing tumor-induced bone loss (PyMT-MSP tumor cells; post osteolysis treatment, about three weeks after tumor injection) | osteolysis from MSP-expressing MDA-MB-231 tumor cells [2] | MSP-induced increase in osteoclast resorption (resorption area) (bone marrow osteoclasts [3]) | selectivity between RON and Met (RON) |
| --- | --- | --- | --- | --- | --- | --- | --- | --- | --- | --- |
| CN1CCN(CCOc2cc(OC3CCOCC3)c3c(Nc4c(Cl)ccc5c4OCO5)ncnc3c2)CC1 [AZD0530] | blocked MSP-mediated survival | – | – | – | – | – | – | – | – | – |
| C[C@@H](Oc1c(N)ncc2c(C3=CCN(C(N)=O)CC3)coc12)c1c(Cl)ccc(F)c1Cl [OSI-296] | – | did not have an effect | 4-6 fold | no significant effect | reduced | reduced | prevent further tumor-induced bone loss | reduce MSP-mediated osteolysis to levels seen in control tumor cells | dramatically reduced | more selective for Met |
